From patent US9382228B2 (priority 2013, dated 2016)

What was measured:
osteoclast precursors = test: cells; format: cell-based; conditions: read-out: Osteoclast assay
M-NFS-60 cells = test: cells; conditions: 67 h, read-out: M-NFS-60 cell proliferation
Procedure: M-NFS-6 Cell Proliferation Assay
A serial dilution of test compound was dispensed into a 384-well black clear bottom plate (Corning, Corning, N.Y.). Two thousand five hundred cells were added per well in 50 μL complete growth medium. […] IC50 values were calculated from a series of percent inhibition values determined at a range of inhibitor concentrations using software routines as implemented in the GraphPad Prism software package.

[1] = test system: phospho-FMS in THP-1 cells; test: cells; conditions: Homo sapiens, THP-1, read-out: pFMS inhibition in THP-1 cells
[2] = target: T1, unphosphorylated c-FMS kinase (uFMS, Seq. ID no. 1) (Homo sapiens, UniProt P07333); test: biochemical; conditions: uFMS, enzymatic assay, ATP 500 μM
T1 sequence (P07333 538-972): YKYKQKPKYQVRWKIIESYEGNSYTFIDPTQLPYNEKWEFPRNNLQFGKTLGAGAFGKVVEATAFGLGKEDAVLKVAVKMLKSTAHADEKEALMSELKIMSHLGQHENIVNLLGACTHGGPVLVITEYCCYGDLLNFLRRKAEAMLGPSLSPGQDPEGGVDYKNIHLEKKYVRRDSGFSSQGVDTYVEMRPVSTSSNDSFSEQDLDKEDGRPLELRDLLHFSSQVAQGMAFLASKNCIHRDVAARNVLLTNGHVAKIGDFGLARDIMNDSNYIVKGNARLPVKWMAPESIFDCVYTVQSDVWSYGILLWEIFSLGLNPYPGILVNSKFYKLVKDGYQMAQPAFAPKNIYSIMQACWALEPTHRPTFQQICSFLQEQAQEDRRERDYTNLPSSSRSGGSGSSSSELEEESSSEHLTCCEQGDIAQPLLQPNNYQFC
Procedure: In this assay, the oxidation of NADH (thus the decrease at A340 nm) was continuously monitored spectrophometrically. The reaction mixture (100 μL) contained FMS (purchased from Millipore) (10 nM), polyE4Y (1 mg/mL), MgCl2 (10 mM), pyruvate kinase (4 units), lactate dehydrogenase (0.7 units), phosphoenol pyruvate (1 mM), NADH (0.28 mM) and ATP (500 μM) in 90 mM Tris buffer containing 0.2% octyl-glucoside and 1% DMSO, pH 7.5. The inhibition reaction was started by mixing serial diluted test compound with the above reaction mixture. The absorption at 340 nm was monitored continuously for 4 hours at 30° C. on Synergy 2 plate reader. The reaction rate was calculated using the 3 to 4 h time frame. Percent inhibition was obtained by comparison of reaction rate with that of a control (i.e. in the absence of test compound). IC50 values were calculated from a series of percent inhibition values determined at a range of inhibitor concentrations using software routines as implemented in the GraphPad Prism software package.

[3] = target: unphosphorylated c-KIT kinase (uKIT, Seq. ID no. 2) (Homo sapiens, UniProt P10721); test: biochemical; conditions: uKIT, enzymatic assay, ATP 2000 μM
Sequence of unphosphorylated c-KIT kinase (uKIT, Seq. ID no. 2) (P10721 with tags, fused parts or gaps): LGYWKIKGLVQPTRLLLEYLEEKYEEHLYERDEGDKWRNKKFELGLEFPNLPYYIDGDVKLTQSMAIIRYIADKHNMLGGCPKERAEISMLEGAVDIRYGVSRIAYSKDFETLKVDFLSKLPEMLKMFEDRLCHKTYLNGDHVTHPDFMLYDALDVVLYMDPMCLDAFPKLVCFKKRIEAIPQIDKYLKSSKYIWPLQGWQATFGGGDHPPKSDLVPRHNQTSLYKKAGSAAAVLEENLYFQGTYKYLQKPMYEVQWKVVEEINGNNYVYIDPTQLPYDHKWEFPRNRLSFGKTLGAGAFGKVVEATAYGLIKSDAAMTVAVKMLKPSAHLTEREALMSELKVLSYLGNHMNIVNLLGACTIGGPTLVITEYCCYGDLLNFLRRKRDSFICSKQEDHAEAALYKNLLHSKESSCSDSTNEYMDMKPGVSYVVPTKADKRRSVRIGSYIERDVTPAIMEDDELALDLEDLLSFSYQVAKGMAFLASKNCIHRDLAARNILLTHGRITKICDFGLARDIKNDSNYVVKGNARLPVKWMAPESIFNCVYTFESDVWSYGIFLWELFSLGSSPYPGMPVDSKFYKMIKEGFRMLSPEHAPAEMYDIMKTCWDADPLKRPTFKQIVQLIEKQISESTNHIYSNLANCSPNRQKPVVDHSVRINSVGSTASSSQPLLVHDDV
Procedure: uKit kinase (Seq. ID No. 2) Assay
In this assay, the oxidation of NADH (thus the decrease at A340 nm) was continuously monitored spectrophometrically. […] The inhibition reaction was started by mixing serial diluted test compound with the above reaction mixture. The absorption at 340 nm was monitored continuously for 4 hours at 30° C. on Synergy 2 plate reader (BioTech).

[4] = target: unphosphorylated PDGFRβ kinase (uPDGFRβ, Seq. ID No. 3) (Homo sapiens, UniProt P09619); test: biochemical; conditions: uPDGFRb, enzymatic assay, ATP 500 μM
Sequence of unphosphorylated PDGFRβ kinase (uPDGFRβ, Seq. ID No. 3) (P09619 557-1106): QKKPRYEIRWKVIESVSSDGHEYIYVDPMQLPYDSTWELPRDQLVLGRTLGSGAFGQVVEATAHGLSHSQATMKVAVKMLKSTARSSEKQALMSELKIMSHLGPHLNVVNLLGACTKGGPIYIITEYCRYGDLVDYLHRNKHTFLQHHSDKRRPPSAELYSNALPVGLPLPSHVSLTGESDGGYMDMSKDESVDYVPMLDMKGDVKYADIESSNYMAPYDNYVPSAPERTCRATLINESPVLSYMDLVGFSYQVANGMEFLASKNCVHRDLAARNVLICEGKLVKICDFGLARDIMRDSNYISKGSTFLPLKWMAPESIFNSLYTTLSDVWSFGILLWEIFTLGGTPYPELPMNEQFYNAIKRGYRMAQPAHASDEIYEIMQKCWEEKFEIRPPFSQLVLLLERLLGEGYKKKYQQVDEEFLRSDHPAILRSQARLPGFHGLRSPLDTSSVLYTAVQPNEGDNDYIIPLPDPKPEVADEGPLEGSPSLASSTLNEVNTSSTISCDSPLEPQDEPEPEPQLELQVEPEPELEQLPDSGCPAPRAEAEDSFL

| SMILES | IC50 (osteoclast precursors) [nM] | IC50 (M-NFS-60 cells) [nM] | IC50 [1] [nM] | IC50 [2] [nM] | IC50 [3] [nM] | IC50 [4] [nM] |
| --- | --- | --- | --- | --- | --- | --- |
| COC1(C(=O)NC(=O)Nc2ccc(Oc3ccnc(-c4ccc(C)nc4)c3)cn2)CC1 [Example 126, 1-methoxy-N-((5-((6′-methyl-[2,3′-bipyridin]-4-yl)oxy)pyridin-2-yl)carbamoyl)cyclopropanecarboxamide] | < 10 | 10 to 100 | 10 to 100 | < 10 | 100 to 1000 | 10 to 100 |
| Cn1cc(-c2cc(Oc3ccc(NC(=O)NC(=O)C4CC4)nc3)ccn2)cn1 [Example 51, N-((5-((2-(1-methyl-1H-pyrazol-4-yl)pyridin-4-yl)oxy)pyridin-2-yl)carbamoyl)cyclopropanecarboxamide] | < 10 | 10 to 100 | < 10 | < 10 | 100 to 1000 | > 1000 |
| Cn1cc(-c2cc(Oc3ccc(NC(=O)NC(=O)C4CCOC4)nc3)ccn2)cn1 (stereo not drawn) [Example 66, N-((5-((2-(1-methyl-1H-pyrazol-4-yl)pyridin-4-yl)oxy)pyridin-2-yl)carbamoyl)tetrahydrofuran-3-carboxamide] | < 10 | 10 to 100 | < 10 | < 10 | 100 to 1000 | > 1000 |
| COC1(C(=O)NC(=O)Nc2ccc(Oc3ccnc(-n4cnc(C)c4)c3)cn2)CCCC1 [Example 154, 1-methoxy-N-((5-((2-(4-methyl-1H-imidazol-1-yl)pyridin-4-yl)oxy)pyridin-2-yl)carbamoyl)cyclopentanecarboxamide] | 10 to 100 | 10 to 100 | 10 to 100 | < 10 | > 1000 | 100 to 1000 |
| Cn1cc(-c2cc(Oc3ccc(NC(=O)NC(=O)C4CC5(CCC5)C4)nc3)ccn2)cn1 [Example 31, N-((5-((2-(1-methyl-1H-pyrazol-4-yl)pyridin-4-yl)oxy)pyridin-2-yl)carbamoyl)spiro[3.3]heptane-2-carboxamide] | < 10 | < 10 | 10 to 100 | < 10 | < 10 | < 10 |
| CCn1cc(-c2cc(Oc3ccc(NC(=O)NC(=O)C(C)(C)C)nc3C)ccn2)cn1 [Example 60, N-((5-((2-(1-ethyl-1H-pyrazol-4-yl)pyridin-4-yl)oxy)-6-methylpyridin-2-yl)carbamoyl)pivalamide] | 10 to 100 | 10 to 100 | < 10 | < 10 | > 1000 | > 1000 |
| CCOC(C)(C)C(=O)NC(=O)Nc1ccc(Oc2ccnc(-c3cnc(C)s3)c2)cn1 [Example 124, 2-ethoxy-2-methyl-N-((5-((2-(2-methylthiazol-5-yl)pyridin-4-yl)oxy)pyridin-2-yl)carbamoyl)propanamide] | 10 to 100 | 10 to 100 | 10 to 100 | < 10 | > 1000 | > 1000 |
